The source of these data is EP3360550A1, “MOLECULES AND PHARMACEUTICAL COMPOSITIONS, IN PARTICULAR FOR TREATING A GENETIC BLOOD DISORDER” (Université de La Réunion, priority 2017, dated 2018).

For data set [1], the system named is laminin 521. As to the kind of experiment: Red blood cell adhesion to laminin 521 under flow conditions. Type of data set: cell-based, human. Conditions: for RBC adhesion to laminin: RBCs from sickle cell disease patients incubated with molecule at 0.1 mM for 30 min at room temperature, 3 blood samples, Figure 1; for inhibition of RBC adhesion to laminin (dose effect): increasing concentrations 50, 100 and 200 µM, same conditions as in Example 1, Figure 2. How it is done: Red blood cell adhesion to laminin 521 was measured under flow conditions using Vena8 Endothelial+™ biochips (internal channel dimensions: length 20 mm, width 0.8 mm, height 0.12 mm) and ExiGo™ Nanopumps (Cellix Ltd, Dublin, Ireland). Three different solutions were prepared with either Molecule 1, Molecule 2 or Molecule 3 (0.1 mM) by solubilizing Molecule 1, 2 or 3 using DMSO. Recombinant human laminin 521 (BioLamina) at 5 ng/µl was immobilized on the internal surface of the biochips at 4°C overnight. RBCs from sickle cell disease patients were suspended at 5x10^7 cells/ml in Hanks balanced salt solution, without calcium chloride and magnesium sulfate (Sigma-Aldrich) supplemented with 0.4% BSA, and incubated with the solution comprising either Molecule 1, Molecule 2 or Molecule 3 at 0.1 mM or DMSO for 30 min at room temperature (20°C) and perfused through the biochip channels for 10 min at a shear stress of 0.5 dyn/cm^2 followed by a washout at the same shear stress with the buffer alone for 30 min. Five minutes washouts with the Hanks/0.4% BSA buffer were performed at 1, 2, 3, 4 and 5 dyn/cm^2. After each wash, adherent RBCs were counted in 7 representative areas along the centerline of each channel using the AxioObserver Z1 microscope and ZEN analysis software (Carl Zeiss, Le Pecq, France) and the mean number of adherent RBCs was determined for each condition and each washout step (Figure 1). Images of the same 7 areas were obtained throughout each experiment. Three adhesion assays were performed with 3 different blood samples. RBC adhesion to laminin was inhibited when the RBC suspension was incubated with Molecule 2 or 3, but not Molecule 1.
To address the dose effect of the molecules, adhesion assays were performed in the same conditions as in Example 1, using the following concentrations for Molecule 1, 2 or 3: • 50, 100 and 200 µM.

Data set [2] relates to RBCs. The experiment in a line: Control of hemolysis (RBC count with CASY Cell Counter and Analyzer). It is filed as cell-based. Conditions: for RBCs/ml (x10^6): RBCs at 6x10^6 cells/ml incubated with molecule at 0.1 mM for 30 min at room temperature; for decrease of RBC concentration compared to vehicle (DMSO) alone: 0.1 mM, 30 min at room temperature. How it is done: At the end of the 30 min of incubation with the molecules, the number of RBC for the control of hemolysis was measure by using CASY® Cell Counter and Analyzer.
For hemolysis assays, RBCs were suspended at 6x10^6 cells/ml in the Hanks/0.4% BSA buffer and the concentration measured accurately using the CASY® Cell Counter and Analyzer. RBCs were then incubated or not with solutions comprising either Molecule 1, Molecule 2 or Molecule 3 at 0.1 mM or DMSO, for 30 min at room temperature. After this incubation time cell concentration was measured again using CASY® Cell Counter and Analyzer (Table 1). If hemolysis occurs during this incubation time it will be reflected by a decrease in the RBC concentration.

Regarding `Cc1c(CC(=O)NC(C(=O)O)c2ccccc2)c(=O)oc2c(C)c3oc4c(c3cc12)CCCC4` (stereo not drawn) [Molecule 2], in data set [1], the “RBC adhesion to laminin” value is reported as “inhibited” and the “inhibition of RBC adhesion to laminin (dose effect)” value is listed as “increasing inhibition”. The “RBCs/ml (x10^6)” value in data set [2] is 5.55 RBCs/ml (x10^6).

As to `CCC(=O)N1CCc2ccc(OCc3nc(C(=O)NCc4ccccc4)co3)cc2C1c1ccc(C)cc1` (stereo not drawn) [Molecule 1], in data set [2], the “decrease of RBC concentration compared to vehicle (DMSO) alone” value is “no decrease” and the “RBCs/ml (x10^6)” value is recorded as 6.04 RBCs/ml (x10^6).

For `O=S(=O)(O)CCCn1c(=NN=Cc2c(O)ccc3ccccc23)sc2ccccc21` [Molecule 3], in data set [1], the “RBC adhesion to laminin” value is “inhibited” and the “inhibition of RBC adhesion to laminin (dose effect)” value is listed as “increasing inhibition”. For the same compound, in data set [2], the “decrease of RBC concentration compared to vehicle (DMSO) alone” value is listed as “no decrease” and the “RBCs/ml (x10^6)” value is 6.02 RBCs/ml (x10^6).
